Read-outs that look alike come from different tables or passages of the source.
How the values were obtained:
hCA IX = target: T1, hCA IX (Homo sapiens, UniProt Q16790); experiment: stopped-flow CO2 hydration; format: biochemical
T1 construct: gene CA9; recombinant, transmembrane isoform
In short: (§1)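 Recombinant human isozymes, preincubated 10 min at room temperature with inhibitor, were assayed by stopped-flow CO2 hydration (5–10 s, 557 nm, 0.2 mM Phenol Red, 10 mM Hepes pH 7.4, 0.1 M Na2SO4 or NaClO4; substrate CO2-saturated water, 25 °C). At least seven inhibitor concentrations down to 0.01 nM were tested in triplicate; each value is the mean of at least three determinations. Ki was fitted by non-linear least squares with the Cheng-Prusoff equation.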

hCA II = target: T2, hCA II (Homo sapiens, UniProt P00918); experiment: stopped-flow CO2 hydration; format: biochemical; settings: read-out: hCAII
T2 construct: gene CA2; recombinant, cytosolic isoform
In short: as §1

hCA I = target: T3, hCA I (Homo sapiens, UniProt P00915); experiment: stopped-flow CO2 hydration; format: biochemical
T3 construct: gene CA1; recombinant, cytosolic isoform
In short: as §1

hCA IV [1] = target: T4, hCA IV (Homo sapiens, UniProt P22748); experiment: biochemical; set-up: Stopped-flow CO2 hydration assay, phenol red at 557 nm, 10 min preincubation, recombinant hCA; Ki via Cheng-Prusoff
T4 construct: gene CA4
Description: An SX.18 MV-R Applied Photophysics (Oxford, UK) stopped-flow instrument has been used for assaying the CA catalyzed CO2 hydration activity. Phenol Red (at a concentration of 0.2 mM) has been used as indicator, working at the absorbance maximum of 557 nm, with 10 mM Hepes (pH 7.4) as buffer, 0.1 M Na2SO4 or NaClO4 (for maintaining constant the ionic strength; these anions are not inhibitory in the used concentration), following the CA-catalyzed CO2 hydration reaction for a period of 5–10 s. Saturated CO2 solutions in water at 25 °C were used as substrate. Stock solutions of inhibitors were prepared at a concentration of 10 μM (in DMSO-water 1:1, v/v) and dilutions up to 0.01 nM done with the assay buffer mentioned above. At least seven different inhibitor concentrations have been used for measuring the inhibition constant. Inhibitor and enzyme solutions were preincubated together for 10 min at room temperature prior to assay, in order to allow for the formation of the E-I complex. Triplicate experiments were done for each inhibitor concentration, and the values reported throughout the paper are the mean of such results. The inhibition constants were obtained by non-linear least-squares methods using the Cheng-Prusoff equation, as reported earlier, and represent the mean from at least three different determinations. All CA isozymes used here were recombinant proteins obtained as reported earlier by our group[10]^c,[25]^,[26]. The newly synthesised compounds 3-sulfamoylbenzamide linked 1,2,3-triazoles (Figure 4) (6a–z) as well as the intermediates (3a–d) and (4a–d) (listed in Table 1) were screened for their CA inhibitory activities against four physiologically significant isoforms, the cytosolic hCA I (associated with edema) and II (associated with glaucoma) as well as the membrane bound hCA IV (associated with glaucoma and retinitis pigmentosa) and transmembrane hCA IX (associated with tumors) by means of the stopped flow carbon dioxide assays[29] in comparison to AAZ as standard CAI (Table 2).

hCA IV [2] = target: T4, hCA IV; experiment: stopped-flow CO2 hydration; format: biochemical
In short: as §1

[3] = CO2 substrate, pH […] Hepes, […] °C, […] min preincubation

T4 sequence (P22748 19-284): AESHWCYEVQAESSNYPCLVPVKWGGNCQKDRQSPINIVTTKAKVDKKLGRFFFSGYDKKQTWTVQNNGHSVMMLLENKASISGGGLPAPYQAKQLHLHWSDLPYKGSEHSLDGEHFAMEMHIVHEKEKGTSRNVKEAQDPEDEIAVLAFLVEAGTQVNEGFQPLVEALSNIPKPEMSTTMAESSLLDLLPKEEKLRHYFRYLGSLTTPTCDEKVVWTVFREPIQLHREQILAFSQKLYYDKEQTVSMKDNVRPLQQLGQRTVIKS
T3 sequence (P00915 2-261): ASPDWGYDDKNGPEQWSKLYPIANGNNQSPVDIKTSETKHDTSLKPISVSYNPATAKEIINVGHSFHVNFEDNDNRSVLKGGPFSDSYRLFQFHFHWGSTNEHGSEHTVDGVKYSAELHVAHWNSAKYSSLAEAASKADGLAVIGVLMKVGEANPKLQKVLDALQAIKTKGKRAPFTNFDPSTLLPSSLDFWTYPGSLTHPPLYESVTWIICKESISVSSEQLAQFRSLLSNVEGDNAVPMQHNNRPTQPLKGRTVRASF

Ki (hCA IX; [3]) | Ki (hCA II; [3]) | Ki (hCA I; [3]) | Ki (hCA IX) | Ki (hCA II) | Ki (hCA IV [1]) | Ki (hCA I) | Ki (hCA IV [2]) | Compound
6750 nM | 9010 nM | 888 nM |  |  |  |  |  | COc1ccc(-n2cc(CNC(=O)c3cccc(S(N)(=O)=O)c3)nn2)cc1 [6f, N-((1–(4-methoxyphenyl)-1H-1,2,3-triazol-4-yl)methyl)-3-sulfamoylbenzamide]
 |  |  | 526 nM | 4160 nM | 7620 nM | 967 nM |  | COc1ccc(C(=O)NCc2cn(-c3ccc(C)cc3)nn2)cc1S(N)(=O)=O [6w, 4-Methoxy-3-sulfamoyl-N-((1-(p-tolyl)-1H-1,2,3-triazol-4-yl)methyl)benzamide]
 |  |  | 63.1 nM | 73.5 nM |  | 69.2 nM | 175 nM | COc1ccc(-n2cc(CNC(=O)c3ccc(F)c(S(N)(=O)=O)c3)nn2)cc1 [6o, 4-Fluoro-N-((1–(4-methoxyphenyl)-1H-1,2,3-triazol-4-yl)methyl)-3-sulfamoylbenzamide]
 |  |  | 9670 nM | 9180 nM | 8780 nM | 9760 nM |  | COc1ccc(C(=O)O)cc1S(N)(=O)=O [3d, 4-Methoxy-3-sulfamoylbenzoic acid]
 |  |  | 4900 nM | 8970 nM |  | 855 nM |  | COc1cc(-n2cc(CNC(=O)c3cccc(S(N)(=O)=O)c3)nn2)cc(OC)c1OC [6b, 3-Sulfamoyl-N-((1–(3,4,5-trimethoxyphenyl)-1H-1,2,3-triazol-4-yl)methyl)benzamide]
 |  |  | 67.9 nM | 402 nM |  | 696 nM | 3400 nM | N#Cc1cccc(-n2cc(CNC(=O)c3ccc(F)c(S(N)(=O)=O)c3)nn2)c1 [6s, N-((1–(3-cyanophenyl)-1H-1,2,3-triazol-4-yl)methyl)-4-fluoro-3-sulfamoylbenzamide]
 |  |  | 447 nM | 73.5 nM |  | 4930 nM | 78.8 nM | C#CCNC(=O)c1ccc(Cl)c(S(N)(=O)=O)c1 [4b, 4-Chloro-N-(prop-2-yn-1-yl)-3-sulfamoylbenzamide]
 |  |  | 9220 nM | 5530 nM | 6840 nM | 9500 nM |  | C#CCNC(=O)c1ccc(OC)c(S(N)(=O)=O)c1 [4d, 4-Methoxy-N-(prop-2-yn-1-yl)-3-sulfamoylbenzamide]
 |  |  | 6820 nM | 9650 nM | 5350 nM | 572 nM |  | COc1ccc(C(=O)NCc2cn(-c3ccc(F)cc3)nn2)cc1S(N)(=O)=O [6v, N-((1–(4-fluorophenyl)-1H-1,2,3-triazol-4-yl)methyl)-4-methoxy-3-sulfamoylbenzamide]
 |  |  | 6130 nM | 366 nM | 8580 nM | 448 nM |  | Cc1cccc(-n2cc(CNC(=O)c3cccc(S(N)(=O)=O)c3)nn2)c1C [6g, N-((1–(2,3-dimethylphenyl)-1H-1,2,3-triazol-4-yl)methyl)-3-sulfamoylbenzamide]
 |  |  | 7980 nM | 4490 nM | 9420 nM | 753 nM |  | NS(=O)(=O)c1cccc(C(=O)NCc2cn(-c3ccccc3)nn2)c1 [6a, N-((1-phenyl-1H-1,2,3-triazol-4-yl)methyl)-3-sulfamoylbenzamide]
 |  |  | 9360 nM | 514 nM | 8460 nM | 9280 nM |  | C#CCNC(=O)c1cccc(S(N)(=O)=O)c1 [4a, N-(prop-2-yn-1-yl)-3-sulfamoylbenzamide]
 |  |  | 34.6 nM | 7.8 nM |  | 811 nM | 89.9 nM | NS(=O)(=O)c1cc(C(=O)NCc2cn(-c3ccc(C(F)(F)F)cc3)nn2)ccc1Cl [6m, 4-Chloro-3-sulfamoyl-N-((1–(4-(trifluoromethyl)phenyl)-1H-1,2,3-triazol-4-yl)methyl)benzamide]
 |  |  | 3190 nM | 2360 nM | 9300 nM | 431 nM |  | N#Cc1cccc(-n2cc(CNC(=O)c3cccc(S(N)(=O)=O)c3)nn2)c1 [6e, N-((1–(3-cyanophenyl)-1H-1,2,3-triazol-4-yl)methyl)-3-sulfamoylbenzamide]
 |  |  | 768 nM | 5370 nM | 8930 nM | 952 nM |  | COc1ccccc1-n1cc(CNC(=O)c2ccc(OC)c(S(N)(=O)=O)c2)nn1 [6z, 4-Methoxy-N-((1–(2-methoxyphenyl)-1H-1,2,3-triazol-4-yl)methyl)-3-sulfamoylbenzamide]
 |  |  | 93.8 nM | 6390 nM | 9340 nM | 7560 nM |  | COc1ccc(C(=O)NCc2cn(-c3ccc(C)cc3C)nn2)cc1S(N)(=O)=O [6x, N-((1–(2,4-dimethylphenyl)-1H-1,2,3-triazol-4-yl)methyl)-4-methoxy-3-sulfamoylbenzamide]
 |  |  | 235 nM | 91.1 nM |  | 369 nM | 91.8 nM | NS(=O)(=O)c1cc(C(=O)NCc2cn(-c3ccc(C(F)(F)F)cc3)nn2)ccc1F [6p, 4-Fluoro-3-sulfamoyl-N-((1–(4-(trifluoromethyl)phenyl)-1H-1,2,3-triazol-4-yl)methyl)benzamide]
 |  |  | 1870 nM | 2330 nM | 9080 nM | 555 nM |  | COc1ccc(C(=O)NCc2cn(-c3ccc(Br)cc3)nn2)cc1S(N)(=O)=O [6y, N-((1–(4-bromophenyl)-1H-1,2,3-triazol-4-yl)methyl)-4-methoxy-3-sulfamoylbenzamide]
 |  |  | 8980 nM | 1380 nM | 2470 nM | 8850 nM |  | NS(=O)(=O)c1cc(C(=O)O)ccc1Cl [3b, 4-Chloro-3-sulfamoylbenzoic acid]
 |  |  | 703 nM | 2900 nM | 9350 nM | 681 nM |  | COc1ccc(C(=O)NCc2cn(-c3ccccc3)nn2)cc1S(N)(=O)=O [6u, 4-Methoxy-N-((1-phenyl-1H-1,2,3-triazol-4-yl)methyl)-3-sulfamoylbenzamide]
 |  |  | 226 nM | 516 nM | 1760 nM | 693 nM |  | Cc1ccc(-n2cc(CNC(=O)c3cccc(S(N)(=O)=O)c3)nn2)c(C)c1 [6h, N-((1–(2,4-dimethylphenyl)-1H-1,2,3-triazol-4-yl)methyl)-3-sulfamoylbenzamide]
 |  |  | 84.5 nM | 49.7 nM |  | 890 nM | 240 nM | NS(=O)(=O)c1cc(C(=O)NCc2cn(-c3ccccc3)nn2)ccc1F [6n, 4-Fluoro-N-((1-phenyl-1H-1,2,3-triazol-4-yl)methyl)-3-sulfamoylbenzamide]
 |  |  | 67.5 nM | 260 nM |  | 836 nM | 215 nM | Cc1ccc(-n2cc(CNC(=O)c3ccc(F)c(S(N)(=O)=O)c3)nn2)cc1 [6r, 4-Fluoro-3-sulfamoyl-N-((1-(p-tolyl)-1H-1,2,3-triazol-4-yl)methyl)benzamide]
 |  |  | 6920 nM | 9270 nM |  | 952 nM |  | NS(=O)(=O)c1cccc(C(=O)NCc2cn(-c3cccc([N+](=O)[O-])c3)nn2)c1 [6c, N-((1–(3-nitrophenyl)-1H-1,2,3-triazol-4-yl)methyl)-3-sulfamoylbenzamide]
 |  |  | 7420 nM | 2970 nM | 8840 nM | 867 nM |  | NS(=O)(=O)c1cccc(C(=O)NCc2cn(-c3cccc(F)c3)nn2)c1 [6d, N-((1–(3-fluorophenyl)-1H-1,2,3-triazol-4-yl)methyl)-3-sulfamoylbenzamide]
 |  |  | 9420 nM | 8660 nM |  | 8770 nM |  | NS(=O)(=O)c1cccc(C(=O)O)c1 [3a, 3-Sulfamoylbenzoic acid]
 |  |  | 9570 nM | 760 nM | 958 nM | 5750 nM |  | NS(=O)(=O)c1cc(C(=O)O)ccc1F [3c, 4-Fluoro-3-sulfamoylbenzoic acid]

Reference: article PMC6598542, “Synthesis of a new series of 3-functionalised-1-phenyl-1,2,3-triazole sulfamoylbenzamides as carbonic anhydrase I, II, IV and IX inhibitors” (Journal of Enzyme Inhibition and Medicinal Chemistry, 2019)
